Patent US6649609B2, “Benzimidazole derivatives and pharmaceutical compositions comprising these compounds” (Neurosearch A/S, priority 1999, dated 2003)
Several values for one entry are separate records, joined by “and”; a condition that tells them apart may be missing. Equal entries are not always repeated. Marks after values point to notes of the source that are not given here.

How the values were obtained:
[1] = target: benzodiazepine receptor (GABAA receptor complex), cerebral cortex membranes; test: In vitro inhibition of 3H-flunitrazepam (3H-FNM) binding; settings: inhibition of specific 3H-FNM (1 nM) binding, rat cerebral cortex membranes
Method: The GABA recognition site and the benzodiazepine modulatory unit can selectively be labelled with ^3H-muscimol and ^3H-flunitrazepam, respectively.
13A: In vitro inhibition of ^3H-flunitrazepam (^3H-FNM) binding
Preparations are performed at 0-4° C. unless otherwise indicated. Cerebral cortex from male Wistar rats (150-200 g) is homogenised for 5-10 sec in 20 ml Tris-HCl (30 mM, pH 7.4) using an Ultra-Turrax homogeniser. The suspension is centrifuged at 27,000× g for 15 min and the pellet is washed three times with buffer (centrifuged at 27,000× g for 10 min). The washed pellet is homogenized in 20 ml of buffer and incubated on a water bath (37° C.) for 30 min to remove endogenous GABA and then centrifuged for 10 min at 27,000× g. The pellet is then homogenized in buffer and centrifuged for 10 min at 27,000× g. The final pellet is resuspended in 30 ml buffer and the preparation is frozen and stored at −20° C.
The membrane preparation is thawed and centrifuged at 2° C. for 10 min at 27,000× g. The pellet is washed twice with 20 ml 50 mM Tris-citrate, pH 7.1 using an Ultra-Turrax homogeniser and centrifuged for 10 min at 27,000× g. The final pellet is resuspended in 50 mM Tris-citrate, pH 7.1 (500 ml buffer per g of original tissue), and then used for binding assays. Aliquots of 0.5 ml tissue are added to 25 μl of test solution and 25 μl of ^3H-FNM (1 nM, final concentration), mixed and incubated for 40 min at 2° C., Non-specific binding is determined using Clonazepam (1 μM, final concentration). After incubation the samples are added 5 ml of ice-cold buffer and poured directly onto Whatman GFIC glass fibre filters under suction and immediately washed with 5 ml ice-cold buffer. The amount of radioactivity on the filters is determined by conventional liquid scintillation counting. Specific binding is total binding minus non-specific binding.
The test value will be given as IC50 (the concentration (μM) of the test substance which inhibits the specific binding of ^3H-FNM by 50%). [formula]
Co is specific binding in control assays, and
Cx is the specific binding in the test assay.
(The calculations assume normal mass-action kinetics).

[2] = test system: clonic convulsions induced by pentylenetetrazol (PTZ); test: PTZ clonic convulsions; assay type: in vivo; settings: female NMRI mice; for ED100: i.v., dose increasing the PTZ threshold to 100 mg PTZ/kg (linear regression); for ptz threshold at 30 mg/kg: test substance 30 mg/kg i.v., PTZ infused after 5 min, vehicle threshold 37-39 mg PTZ/kg
Method: The purpose of this test is to show antagonism of clonic convulsions induced by pentylenetetrazol (PTZ). PTZ induces clonic convulsions in mice after i.v. infusion. Antagonism of PTZ-induced convulsions is a measure for the agonistic character of ligands for the benzodiazepine recognition site.
Female NMRI mice (Bomholdtgaard, Ry), 20 g, 6 mice in each group are administered i.v. with vehicle or test substance. After five minutes the PTZ-solution is infused intravenously at a speed of 0.7 ml/minute through a cannula placed in the tail vein. The time from initiation of the infusion to appearance of clonic convulsions is recorded.
The dose of PTZ required for inducing convulsion in each mouse is calculated as PTZ/kg body weight. Means ±sd for each experimental group of 6 mice is calculated. ED100 is calculated by linear regression expressing the dose increasing the PTZ threshold to 100 mg PTZ/kg.
The threshold of vehicle treated controls is in the range of 37-39 mg PTZ/kg. As a control in each series of experiments PTZ is infused into 6 vehicle treated mice.

[3] = test system: GABAA receptor-ion channel complex (forebrain); test: In vivo inhibition of 3H-FNM binding; set-up: species or system mouse; settings: female NMRI mice, test substance i.v., inhibition of specific [3H]FNM binding in forebrain
Method: 13B: In vivo inhibition of ^3H-FNM binding
[^3H]FNM can also be used for in vivo receptor labelling studies in mouse. Accumulation of [^3H]FNM binding will occur all over the brain as GABAA receptors are widely distributed.
All test substances used are solutions prepared in 10% TWEEN 80. Groups of three female NMRI mice (25 g) are injected i.v. via the tail vein with 5.0 μCi of [3H]FNM in 0.2 ml saline. Fifteen min after injection with [^3H]FNM the test substance is administered i.v. Twenty min after injection with [^3H]FNM, mice are killed by decapitation, the forebrains rapidly excised and homogenized in 12 ml of ice-cold 50 mM Tris-citrate, pH 7.1 using an Ultra-Turrax homogenizer. Three aliquots of 1 ml are immediately filtered through GF/C glass fibre filters and washed with 2×5 ml of ice-cold buffer. The amounts of radioactivity on the filters and in 200 μl of the homogenate are determined by conventional scintillation counting. Groups of untreated mice serves as controls. To determine non-specific binding groups of mice are injected with Clonazepam (25 mg/kg) i.p. 10 min before [3H]FNM injection. Specific binding is the amount of binding in controls minus the amount of binding in Clonazepam treated mice.
The ED50 value is determined from dose response curves. […] [formula]
where Co is specific binding in controls and Cx is the specific binding in mice treated with test substance.

[4] = test system: pigs; test: Evaluation of efficacy: anaesthesia after bolus injection; assay type: in vivo; settings: pigs 25-30 kg; for Induction Time / Maintained anaesthesia / Normalising time following awakening: i.v. bolus, dose per compound as in Table 10 (0.03-3 mg/kg)
Method: Aqueous solutions of the test substances (50 mg/ml isotonic glucose) were administered to pigs (25-30 kg) as bolus injections. The actual dose of each substance is included in the table below.
These observations are compiled in Table 10 below. This table also provides comparative data for compounds of the prior art (WO 98/17651).

SMILES: CCOC(=O)CN1CCC(c2cccc(-n3cnc4cc(-c5ccoc5)ccc43)c2)CC1 [Compound 7g, 5-(3-Furanyl)-1-(3-(1-ethoxycarbonylmethyl-4-piperidyl)-phenyl)-benzimidazole]
- IC50 [1]: 0.9 nM
- ED100 [2]: 1.2 mg/kg
- ptz threshold at 30 mg/kg [2]: 200 mg/kg
- In vivo binding ED50 [3]: 1.4 mg/kg
- melting point: 114.5 to 115 °C and 114 to 115 °C

SMILES: CCOC(=O)CN1CCN(c2cccc(-n3cnc4cc(C(=O)OCCOC)ccc43)c2)CC1 [Compound 1b, 2-Methoxyethyl 1-(3-(4-(ethoxy-carbonyl-methyl)-1-piperazinyl)-phenyl)-benzimidazole-5-carboxylate]
- IC50 [1]: 260 nM
- ED100 [2]: 1.6 mg/kg
- ptz threshold at 30 mg/kg [2]: 200 mg/kg
- In vivo binding ED50 [3]: 0.9 mg/kg
- Induction Time [4]: 1.3 min
- Maintained anaesthesia [4]: 10^ min.
- Normalising time following awakening [4]: 15 min

SMILES: CC(=O)N1CCN(CCOC(=O)c2cccc(-n3cnc4cc(-c5ccoc5)ccc43)c2)CC1 [Compound 7j, 2-(1-Acetyl-4-piperazinyl)-ethyl 3-(5-(3-furanyl)-1-benzimidazolyl)-benzoate]
- IC50 [1]: 2.8 nM
- ED100 [2]: 13 mg/kg
- ptz threshold at 30 mg/kg [2]: 170 mg/kg
- In vivo binding ED50 [3]: 1.9 mg/kg
- Observation on anaesthesia (footnote to Maintained anaesthesia) ([4]; bolus 3 mg/kg): ^aUneasy sleep
- Induction Time [4]: 0.5 min
- Maintained anaesthesia [4]: 8^a min.
- Normalising time following awakening [4]: 20 min

SMILES: COC(=O)c1cn(-c2cccc(-n3cnc4cc(-c5ccoc5)ccc43)c2)cn1 [Compound 7c, 5-(3-Furanyl)-1-(3-(4-methoxycarbonyl-1-imidazolyl)-phenyl)-benzimidazole]
- IC50 [1]: 0.7 nM
- ED100 [2]: 20 mg/kg
- ptz threshold at 30 mg/kg [2]: 110 mg/kg
- In vivo binding ED50 [3]: 0.43 mg/kg
- melting point: 221 to 223 °C
